Where a name gives a salt, the structure may show the parent alone.
Key:
[1] = target: T1, proMMP9(20-445;ΔFnII) (SEQ ID NO:6) (Homo sapiens, UniProt P14780, DEL216-390); assay: ThermoFluor binding assay with proMMP9(20-445;ΔFnII); conditions: pH 7.0
T1 construct: start methionine (N); made in house; host or cells: E. coli BL21(DE3) RIL
T1 sequence (P14780 with tags, fused parts or gaps DEL216-390): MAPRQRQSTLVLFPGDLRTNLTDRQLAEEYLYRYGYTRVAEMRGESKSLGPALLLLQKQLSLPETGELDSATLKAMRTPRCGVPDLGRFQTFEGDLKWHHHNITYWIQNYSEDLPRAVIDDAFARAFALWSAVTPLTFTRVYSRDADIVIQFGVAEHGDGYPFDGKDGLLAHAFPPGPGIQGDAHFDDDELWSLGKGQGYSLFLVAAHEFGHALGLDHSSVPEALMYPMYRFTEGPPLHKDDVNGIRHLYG
Outline: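 proMMP9(20-445;ΔFnII) at 2.8 μM with 50 μM 1,8-ANS in 50 mM HEPES pH 7.0, 100 mM NaCl, 0.001% Tween-20, 2.5 mM MgCl2, 300 μM CaCl2; compounds serially diluted in DMSO. Heated 40–90 °C at 1 °C/min, fluorescence read at 500±25 nm. Tm fit by standard equations; binding fit using DSC/TF-derived thermodynamic parameters.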

[2] = target: T2, proMMP9(67-444;ΔFnII) (SEQ ID NO:5) (Homo sapiens, UniProt P14780, DEL216-390); assay: ThermoFluor binding assay with proMMP9(67-444;ΔFnII); conditions: pH 7.0
T2 construct: start methionine (N); made in house; host or cells: E. coli BL21(DE3) RIL
T2 sequence (P14780 with tags, fused parts or gaps DEL216-390): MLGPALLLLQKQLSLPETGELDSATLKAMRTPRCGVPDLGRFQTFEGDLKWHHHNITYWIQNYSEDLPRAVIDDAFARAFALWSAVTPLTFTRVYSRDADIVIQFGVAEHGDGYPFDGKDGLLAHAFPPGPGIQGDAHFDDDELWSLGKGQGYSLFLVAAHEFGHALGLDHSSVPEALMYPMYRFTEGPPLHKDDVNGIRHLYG
Outline: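 Thermal shift binding with 3.5 μM proMMP9(67-444;ΔFnII) and 50 μM 1,8-ANS in 50 mM HEPES pH 7.0, 100 mM NaCl, 2.5 mM MgCl2, 300 μM CaCl2, 0.001% Tween-20, with serially diluted compound. Heated 40 to 90° C at 1° C/min; fluorescence-derived Tm fitted using DSC/ThermoFluor thermodynamic parameters.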

[3] = target: T3, full-length proMMP9(1-707) (SEQ ID NO:1) (Homo sapiens, UniProt P14780, R574P); assay: ProMMP9/MMP3 DQ Gelatin Activation Assay; assay type: biochemical; conditions: 20 nM proMMP9, 10 nM MMP3, DQ gelatin; read-out: ProMMP9/MMP3 DQ gel Activation Assay, IC50
T3 construct: made in house; host or cells: HEK293 (proMMP9, secreted); E. coli (MMP3)
Protocol: Compounds were assessed for inhibition of proMMP9 activation by catalytic MMP3 using a quenched fluorescein gelatin substrate (DQ gelatin, Invitrogen D12054) that fluoresces upon cleavage by activated MMP9. The assay buffer employed was 50 mM Hepes, pH 7.5, 10 mM CaCl2, 0.05% Brij-35. DMSO was included at a final concentration of 0.2%, arising from the test compound addition. […] Test compounds in DMSO were diluted 250-fold in assay buffer at 4× the final concentration. The reaction volume was 12 μL, and all reactions were conducted in triplicate. […] The plate was sealed and incubated for 30 min at 37° C. […] Immediately following the 30 min incubation, 4 μL of 40 μg/ml DQ gelatin substrate was added (freshly diluted in assay buffer), and incubated for 10 min at room temperature. The reaction was stopped by the addition of 4 μL of 50 mM EDTA, and the resulting activity associated with catalytic MMP9 was determined at 485 nm excitation, 535 nm emission using an Envision fluorescent reader (Perkin Elmer). Reactivity of residual MMP3 towards DQ gelatin was minimal under these conditions. Percent inhibition of test compounds were determined from suitable positive (DMSO only in assay buffer) and negative (EDTA added prior to reaction initiation) controls. Plots of % inhibition vs. test compound concentration were fit to a four-parameter logistics equation (GraphPad Prism® software) for determination of IC50.

[4] = target: T4, proMMP13(1-268) (SEQ ID NO:7) (Homo sapiens, UniProt P45452); assay: ThermoFluor binding assay with proMMP13(1-268); set-up: 6xHis (C); made in house; conditions: pH 7.0
Outline: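 Thermal shift binding with 3.5 μM protein and 25 μM 1,8-ANS in 50 mM HEPES pH 7.0, 100 mM NaCl, 0.001% Tween-20, 2.5 mM MgCl2, 300 μM CaCl2. Samples were heated 40 to 90 °C at 1 °C/min, fluorescence read at 500 nm. Tm shifts across an 11-point DMSO dilution series were fitted with DSC-derived thermodynamic parameters.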

[5] = target: T3, full-length proMMP9(1-707) (SEQ ID NO:1); assay: proMMP9/MMP3 P126 Activation Assay; assay type: biochemical; conditions: 20 nM proMMP9, 20 nM MMP3, 80 min 37° C.
Protocol: The reaction volume was 50 μL. […] Reactivity of residual MMP3 towards P-126 substrate was minimal under these conditions.

[6] = target: T4, proMMP13(1-268) (SEQ ID NO:7); assay: ProMMP13/Plasmin P126 Activation Assay; assay type: biochemical; set-up: 6xHis (C); made in house; host or cells: HEK293 (transient, secreted); conditions: 8 nM proMMP13, 16 nM plasmin, 40 min 37° C.
Protocol: On the day of assay, proMMP13(1-268) (SEQ ID NO:7) purified from HEK293 cells and plasmin were diluted to 160 nM and 320 nM, respectively, in assay buffer. The reaction volume was 50 μL. […] The plate was sealed and incubated for 40 min at 37° C. […] Plasmin was not reactive towards P-126 substrate under these conditions.

T3 sequence (P14780 20-707 R574P): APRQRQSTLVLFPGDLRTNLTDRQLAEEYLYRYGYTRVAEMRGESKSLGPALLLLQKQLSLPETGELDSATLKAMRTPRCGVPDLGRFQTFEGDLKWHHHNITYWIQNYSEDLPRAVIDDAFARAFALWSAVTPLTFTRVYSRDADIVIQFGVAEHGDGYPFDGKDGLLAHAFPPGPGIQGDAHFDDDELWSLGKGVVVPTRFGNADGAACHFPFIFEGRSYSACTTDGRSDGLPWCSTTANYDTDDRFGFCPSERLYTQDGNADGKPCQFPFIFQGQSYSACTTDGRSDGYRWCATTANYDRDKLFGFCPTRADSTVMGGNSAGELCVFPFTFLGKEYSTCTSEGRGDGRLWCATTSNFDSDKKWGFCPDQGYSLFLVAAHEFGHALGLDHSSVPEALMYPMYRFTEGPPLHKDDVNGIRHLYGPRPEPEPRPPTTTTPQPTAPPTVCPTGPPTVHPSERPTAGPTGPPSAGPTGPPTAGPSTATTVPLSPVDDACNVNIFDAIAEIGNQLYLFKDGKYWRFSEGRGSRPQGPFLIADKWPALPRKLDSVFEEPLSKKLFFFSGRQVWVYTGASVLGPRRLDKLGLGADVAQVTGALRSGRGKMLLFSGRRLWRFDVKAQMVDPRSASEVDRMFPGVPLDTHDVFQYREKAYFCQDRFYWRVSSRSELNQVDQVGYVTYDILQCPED

Row | Structure (SMILES) | Kd [1] [µM] | Kd [2] [µM] | IC50 [3] [µM] | Kd [4] [µM] | IC50 [5] [µM] | IC50 [6] [µM]
1 | CC(=O)Nc1nc(C)c(-c2csc(Nc3cccc4cccnc34)n2)s1 [Example 146, N-[4′-Methyl-2-(quinolin-8-ylamino)-[4,5′]bithiazolyl-2′-yl]-acetamide.TFA] | 4.6 | 1.3 | 5.9 | – | – | –
2 | CC(=O)Nc1nc(C)c(-c2csc(Nc3cccc4ccccc34)n2)s1 [Example 149, N-[4′-Methyl-2-(naphthalen-1-ylamino)-[4,5′]bithiazolyl-2′-yl]-acetamide.HCl] | 5 | 4.4 | 27 | 40 | – | –
3 | CC(=O)Nc1nc(C)c(-c2csc(Nc3cccnc3O)n2)s1 [Example 148, N-[2-(2-Hydroxy-pyridin-3-ylamino)-4′-methyl-[4,5′]bithiazolyl-2′-yl]-acetamide.HBr] | > 8 | > 8 | 6 | – | – | –
4 | COc1ccc(C)cc1Nc1nc(-c2sc(NC(C)=O)nc2C)cs1 [Example 11, N-[2-(2-Methoxy-5-methyl-phenylamino)-4′-methyl-[4,5′]bithiazolyl-2′-yl]-acetamide] | 9.8 | 1.1 | 9 | 30 | – | –
5 | COc1ncccc1Nc1nc(-c2sc(NC(C)=O)nc2C)cs1 [Example 147, N-[2-(2-Methoxy-pyridin-3-ylamino)-4′-methyl-[4,5′]bithiazolyl-2′-yl]-acetamide.TFA] | 12 | 7.6 | 20 | – | – | –
6 | Cc1nc(C2CCN(C)CC2)sc1-c1csc(Nc2cc(C(N)=O)ccc2OC(C)C)n1 [Example 157, 4-Isopropoxy-3-((4′-methyl-2′-(1-methylpiperidin-4-yl)-[4,5′-bithiazol]-2-yl)amino)benzamide.TFA] | – | – | – | – | 0.033 | 0.86
7 | CCOc1ccc(C(N)=O)cc1Nc1nc(-c2sc(C(=O)NC3CCN(C)CC3)nc2C)cs1 [Example 121, 2-(5-Carbamoyl-2-ethoxy-phenylamino)-4′-methyl-[4,5′]bithiazolyl-2′-carboxylic acid (1-methyl-piperidin-4-yl)-amide.TFA] | 2.4 | 1.2 | – | 8.7 | 0.37 | –
8 | COc1ccc(-c2ccnn2C)cc1Nc1nc(-c2sc(C)nc2C)cs1 [Example 139] | 75 | 11 | – | 8.1 | 5.2 | –
9 | CCN1CCN(C(=O)c2nc(C)c(-c3csc(Nc4cc(C(N)=O)ccc4OC(C)C)n3)s2)CC1 [Example 102, 3-[2′-(4-Ethyl-piperazine-1-carbonyl)-4′-methyl-[4,5′]bithiazolyl-2-ylamino]-4-isopropoxy-benzamide.TFA] | 0.7 | 0.73 | – | 0.66 | 0.13 | –
10 | Cc1nc(N)sc1-c1csc(Nc2cc(C#N)ccc2OC(C)C)n1 [Example 71, 3-(2′-Amino-4′-methyl-[4,5′]bithiazolyl-2-ylamino)-4-isopropoxy-benzonitrile.HBr] | 0.28 | 0.095 | – | 0.042 | 0.87 | –
11 | CCOc1ccc(C(N)=O)cc1Nc1nc(-c2sc(C(=O)N3CCCN(CC)CC3)nc2C)cs1 [Example 120, 4-Ethoxy-3-[2′-(4-ethyl-[1,4]diazepane-1-carbonyl)-4′-methyl-[4,5]bithiazolyl-2-ylamino]-benzamide.TFA] | 2.5 | 1.6 | – | 5.6 | 0.48 | –
